Data as given in ChEMBL document CHEMBL4033708, “Synthesis and molecular docking study of some 5,6-dichloro-2-cyclopropyl-1H-benzimidazole derivatives bearing triazole, oxadiazole, and imine functionalities as potent inhibitors of urease” (Bioorg Med Chem Lett, 2017).

Target: Urease (Canavalia ensiformis, UniProt P07374)
Assay: Inhibition of jack bean urease using urea as substrate pretreated for 15 mins followed by substrate addition by phenol red based spectrophotometric method

Chain of Urease (P07374 whole entry): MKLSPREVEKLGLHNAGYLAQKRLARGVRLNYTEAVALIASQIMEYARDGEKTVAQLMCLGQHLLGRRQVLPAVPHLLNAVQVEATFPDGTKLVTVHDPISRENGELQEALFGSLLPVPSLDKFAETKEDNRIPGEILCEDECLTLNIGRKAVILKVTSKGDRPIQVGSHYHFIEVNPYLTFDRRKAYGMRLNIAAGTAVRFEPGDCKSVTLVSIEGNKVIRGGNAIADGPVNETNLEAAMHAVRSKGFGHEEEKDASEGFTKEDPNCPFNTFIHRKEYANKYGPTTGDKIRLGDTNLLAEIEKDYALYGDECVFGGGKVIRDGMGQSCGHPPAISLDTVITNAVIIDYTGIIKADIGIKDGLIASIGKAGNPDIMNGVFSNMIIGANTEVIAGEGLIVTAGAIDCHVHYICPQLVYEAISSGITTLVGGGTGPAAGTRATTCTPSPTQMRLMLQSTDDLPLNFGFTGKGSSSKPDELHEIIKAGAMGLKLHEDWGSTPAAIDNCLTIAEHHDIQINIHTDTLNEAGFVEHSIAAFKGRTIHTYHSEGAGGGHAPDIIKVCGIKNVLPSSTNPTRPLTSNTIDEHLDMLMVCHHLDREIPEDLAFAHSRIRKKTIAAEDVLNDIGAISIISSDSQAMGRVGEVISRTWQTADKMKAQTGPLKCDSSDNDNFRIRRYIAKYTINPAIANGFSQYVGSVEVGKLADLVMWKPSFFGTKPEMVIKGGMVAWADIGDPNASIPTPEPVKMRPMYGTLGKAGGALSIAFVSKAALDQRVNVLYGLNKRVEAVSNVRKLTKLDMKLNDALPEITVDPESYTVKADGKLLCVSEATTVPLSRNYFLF

Compound | IC50
NNC(=O)Cn1c(C2CC2)nc2cc(Cl)c(Cl)cc21 | 1920 nM
O=C(Cn1c(C2CC2)nc2cc(Cl)c(Cl)cc21)N/N=C/c1ccccc1O | 220 nM
Clc1cc2nc(C3CC3)[nH]c2cc1Cl | 170 nM
O=C(Cn1c(C2CC2)nc2cc(Cl)c(Cl)cc21)N/N=C/c1cc(Br)ccc1O | 140 nM
Sc1nnc(Cn2c(C3CC3)nc3cc(Cl)c(Cl)cc32)o1 | 1340 nM
CN(C)c1ccc(/C=N/NC(=O)Cn2c(C3CC3)nc3cc(Cl)c(Cl)cc32)cc1 | 1490 nM
CCn1c(S)nnc1Cn1c(C2CC2)nc2cc(Cl)c(Cl)cc21 | 380 nM
COC(=O)Cn1c(C2CC2)nc2cc(Cl)c(Cl)cc21 | 1120 nM
CCNC(=S)NNC(=O)Cn1c(C2CC2)nc2cc(Cl)c(Cl)cc21 | 280 nM
O=C(Cn1c(C2CC2)nc2cc(Cl)c(Cl)cc21)N/N=C/c1cc(Cl)ccc1O | 150 nM
O=C(Cn1c(C2CC2)nc2cc(Cl)c(Cl)cc21)N/N=C/c1ccc(F)c(Br)c1 | 60 nM
O=C(Cn1c(C2CC2)nc2cc(Cl)c(Cl)cc21)N/N=C/c1ccccc1 | 2070 nM
CNC(=S)NNC(=O)Cn1c(C2CC2)nc2cc(Cl)c(Cl)cc21 | 50 to 60 nM
O=C(Cn1c(C2CC2)nc2cc(Cl)c(Cl)cc21)N/N=C/c1ccc(Cl)cc1 | 290 nM
Cn1c(S)nnc1Cn1c(C2CC2)nc2cc(Cl)c(Cl)cc21 | 170 nM
NC(N)=S [THIOUREA] | 560 nM
